# Counter-ions that a name gives are not always drawn.
# Target: human PDE4B1 (Homo sapiens (Human), UniProt Q07343)
# Assay: TR-FRET assay using the LANCE Ultra cAMP kit to determine the activity of hPDE4B1
# Format: biochemical
# Settings: IC50 inhibition of PDE4B, mean
# How it was run: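 Recombinant human PDE4B1 (Sf9-expressed, 0.96 U) incubated with compound and 500 nM cAMP in 50 mM Tris-HCl, 50 mM MgCl2, 5 mM DTT, pH 8.5, 30 min at room temperature. Residual cAMP read by TR-FRET (665/620 nm ratio) after IBMX stop. IC50 from ten-concentration curves as % inhibition of control.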
# Chain of human PDE4B1 (Q07343 whole entry): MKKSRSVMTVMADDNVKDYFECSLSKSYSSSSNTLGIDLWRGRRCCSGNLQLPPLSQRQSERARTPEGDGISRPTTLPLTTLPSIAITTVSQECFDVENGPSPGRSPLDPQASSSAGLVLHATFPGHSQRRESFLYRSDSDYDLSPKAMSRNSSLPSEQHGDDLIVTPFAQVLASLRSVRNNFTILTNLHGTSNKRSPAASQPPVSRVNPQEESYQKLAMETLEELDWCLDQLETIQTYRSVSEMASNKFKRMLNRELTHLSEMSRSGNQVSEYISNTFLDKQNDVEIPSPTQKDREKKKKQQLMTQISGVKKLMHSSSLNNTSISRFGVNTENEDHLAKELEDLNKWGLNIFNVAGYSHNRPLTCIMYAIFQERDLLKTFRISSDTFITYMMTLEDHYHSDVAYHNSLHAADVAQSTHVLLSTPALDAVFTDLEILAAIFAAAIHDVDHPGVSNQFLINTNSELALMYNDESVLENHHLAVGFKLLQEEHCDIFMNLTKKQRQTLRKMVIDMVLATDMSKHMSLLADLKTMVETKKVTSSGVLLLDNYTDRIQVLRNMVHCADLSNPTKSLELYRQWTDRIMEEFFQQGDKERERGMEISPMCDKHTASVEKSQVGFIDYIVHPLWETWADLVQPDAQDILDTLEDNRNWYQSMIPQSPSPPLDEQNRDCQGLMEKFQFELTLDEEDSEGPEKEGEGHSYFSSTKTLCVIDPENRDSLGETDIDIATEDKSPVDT
row,IC50 [µM],SMILES
1,< 0.1,"O=C(c1ccc2c(c1)N(c1ncc(-c3ccccc3F)cn1)CC21CC1)N1CCC[C@H](CO)C1 [Compound 317, [1-[5-(2-Fluorophenyl)-pyrimidin-2-yl]-spiro[1,2-dihydro-indole-3,1′-cyclopropane]-6-yl]-[(3S)-3-(hydroxymethyl)-piperidin-1-yl]-methanone]"
2,< 0.1,"O=C(c1ccc2c(c1)N(c1ncc(-c3cc(C4(O)CC4)ccn3)cn1)CC21CC1)N1CCOCC1 [Compound 351, [1-[5-[4-(1-Hydroxy-cyclopropyl)-pyridin-2-yl]-pyrimidin-2-yl]-spiro[1,2-dihydro-indole-3,1′-cyclopropane]-6-yl]-morpholin-4-yl-methanone]"
3,< 0.1,"CN(CCO)C(=O)c1ccc2c(c1)N(c1ncc(-c3cccc(O)n3)cn1)CC21CC1 [Compound 280, N-(2-Hydroxy-ethyl)-1-[5-(6-hydroxy-pyridin-2-yl)-pyrimidin-2-yl]-N-methyl-spiro[1,2-dihydro-indole-3,1′-cyclopropane]-6-carboxylic acid amide]"
4,< 0.1,"CCc1nc(-c2cnc(N3CC4(CC4)c4ccc(C(=O)N(C)CCO)cc43)nc2)cs1 [Compound 325, 1-[5-(2-Ethyl-thiazol-4-yl)-pyrimidin-2-yl]-N-(2-hydroxy-ethyl)-N-methyl-spiro[1,2-dihydro-indole-3,1′-cyclopropane]-6-carboxylic acid amide]"
5,< 0.1,"CN(CCO)C(=O)c1ccc2c(c1)N(c1ncc(-c3cc(C4CC4)ccn3)cn1)CC21CC1 [Compound 254, 1-[5-(4-Cyclopropyl-pyridin-2-yl)-pyrimidin-2-yl]-N-(2-hydroxy-ethyl)-N-methyl-spiro[1,2-dihydro-indole-3,1′-cyclopropane]-6-carboxylic acid amide]"
6,< 0.1,"COc1ccnc(-c2cnc(N3CC4(CC4)c4ccc(C(=O)N5CCNC(=O)C5)cc43)nc2)c1 [Compound 244, 4-[1-[5-(4-Methoxy-pyridin-2-yl)-pyrimidin-2-yl]-spiro[1,2-dihydro-indole-3,1′-cyclopropane]-6-carbonyl]-piperazin-2-one]"
7,< 0.1,"C[C@H](O)CN(C)C(=O)c1ccc2c(c1)N(c1ncc(-c3ccccc3F)cn1)CC21CC1 [Compound 284, 1-[5-(2-Fluorophenyl)-pyrimidin-2-yl]-N-[(2S)-2-hydroxy-propyl]-N-methyl-spiro[1,2-dihydro-indole-3,1′-cyclopropane]-6-carboxylic acid amide]"
8,< 0.1,"CN(CCO)C(=O)c1ccc2c(c1)N(c1ncc(-c3cc(C(C)(C)O)ccc3F)cn1)CC21CC1 [Compound 309, 1-[5-[2-Fluoro-5-(1-hydroxy-1-methyl-ethyl)-phenyl]-pyrimidin-2-yl]-N-(2-hydroxy-ethyl)-N-methyl-spiro[1,2-dihydro-indole-3,1′-cyclopropane]-6-carboxylic acid amide]"
9,< 0.1,"CCc1cccc(-c2cnc(N3CC4(CC4)c4ccc(C(=O)N(C)CCO)cc43)nc2)n1 [Compound 268, 1-[5-(6-Ethyl-pyridin-2-yl)-pyrimidin-2-yl]-N-(2-hydroxy-ethyl)-N-methyl-spiro[1,2-dihydro-indole-3,1′-cyclopropane]-6-carboxylic acid amide]"
10,< 0.1,"CN(CCO)C(=O)c1ccc2c(c1)N(c1ncc(-c3csc(CO)n3)cn1)CC21CC1 [Compound 326, N-(2-Hydroxy-ethyl)-1-[5-[2-(hydroxymethyl)-thiazol-4-yl]-pyrimidin-2-yl]-N-methyl-spiro[1,2-dihydro-indole-3,1′-cyclopropane]-6-carboxylic acid amide]"
11,< 0.1,"O=C(c1ccc2c(c1)N(c1ncc(-c3ccccc3F)cn1)CC21CC1)N1CCO[C@H](CO)C1 [Compound 354, [1-[5-(2-Fluorophenyl)-pyrimidin-2-yl]-spiro[1,2-dihydro-indole-3,1′-cyclopropane]-6-yl]-[(2S)-2-(hydroxymethyl)-morpholin-4-yl]-methanone]"
12,< 0.1,"CN(CCO)C(=O)c1ccc2c(c1)N(c1ncc(-c3cccc(Cl)c3)cn1)CC21CC1 [Compound 273, 1-[5-(3-Chlorophenyl)-pyrimidin-2-yl]-N-(2-hydroxy-ethyl)-N-methyl-spiro[1,2-dihydro-indole-3,1′-cyclopropane]-6-carboxylic acid amide]"
13,< 0.1,"Cc1ccnc(-c2cnc(N3CC4(CC4)c4ccc(C(=O)N(C)CC(N)=O)cc43)nc2)c1 [Compound 300, N-(Carbamoyl-methyl)-N-methyl-1-[5-(4-methyl-pyridin-2-yl)-pyrimidin-2-yl]-spiro[1,2-dihydro-indole-3,1′-cyclopropane]-6-carboxylic acid amide]"
14,< 0.1,"CCNc1ccnc(-c2cnc(N3CC4(CC4)c4ccc(C(=O)N(C)CCO)cc43)nc2)c1 [Compound 316, 1-[5-(4-Ethylamino-pyridin-2-yl)-pyrimidin-2-yl]-N-(2-hydroxy-ethyl)-N-methyl-spiro[1,2-dihydro-indole-3,1′-cyclopropane]-6-carboxylic acid amide]"
15,< 0.1,"CN(CC(=O)O)C(=O)c1ccc2c(c1)N(c1ncc(-c3ccccc3F)cn1)CC21CC1 [Compound 245, 2-[[1-[5-(2-Fluorophenyl)-pyrimidin-2-yl]-spiro[1,2-dihydro-indole-3,1′-cyclopropane]-6-carbonyl]-methyl-amino]-acetic acid]"
16,< 0.1,"CC(=O)Nc1ccnc(-c2cnc(N3CC4(CC4)c4ccc(C(=O)N5CCOCC5)cc43)nc2)c1 [Compound 346, N-[2-[2-[6-(Morpholine-4-carbonyl)-spiro[1,2-dihydro-indole-3,1′-cyclopropane]-1-yl]-pyrimidin-5-yl]-pyridin-4-yl]-acetamide]"
17,< 0.1,"CN(CCO)C(=O)c1ccc2c(c1)N(c1ncc(-c3nc(CC#N)cs3)cn1)CC21CC1 [Compound 350, 1-[5-[4-(Cyano-methyl)-thiazol-2-yl]-pyrimidin-2-yl]-N-(2-hydroxy-ethyl)-N-methyl-spiro[1,2-dihydro-indole-3,1′-cyclopropane]-6-carboxylic acid amide]"
18,< 0.1,"CC(C)c1ccnc(-c2cnc(N3CC4(CC4)c4ccc(C(=O)N5CC[C@@H](N)C5)cc43)nc2)c1 [Compound 331, [(3R)-3-Amino-pyrrolidin-1-yl]-[1-[5-(4-isopropyl-pyridin-2-yl)-pyrimidin-2-yl]-spiro[1,2-dihydro-indole-3,1′-cyclopropane]-6-yl]-methanone]"
19,< 0.1,"CN(CCO)C(=O)c1ccc2c(c1)N(c1ncc(-c3cc([S+](C)[O-])ccc3F)cn1)CC21CC1 (stereo not shown) [Compound 287, 1-[5-[2-Fluoro-5-(methylsulfinyl)-phenyl]-pyrimidin-2-yl]-N-(2-hydroxy-ethyl)-N-methyl-spiro[1,2-dihydro-indole-3,1′-cyclopropane]-6-carboxylic acid amide]"
20,< 0.1,"CCc1ccnc(-c2cnc(N3CC4(CC4)c4ccc(C(=O)N(C)C)cc43)nc2)c1 [Compound 270, 1-[5-(4-Ethyl-pyridin-2-yl)-pyrimidin-2-yl]-N,N-dimethyl-spiro[1,2-dihydro-indole-3,1′-cyclopropane]-6-carboxylic acid amide]"
21,< 0.1,"CN(CCO)C(=O)c1ccc2c(c1)N(c1ncc(-c3cc(NCC4CC4)ccn3)cn1)CC21CC1 [Compound 319, 1-[5-[4-(Cyclopropyl-methylamino)-pyridin-2-yl]-pyrimidin-2-yl]-N-(2-hydroxy-ethyl)-N-methyl-spiro[1,2-dihydro-indole-3,1′-cyclopropane]-6-carboxylic acid amide]"
22,< 0.1,"CN(C)C(=O)c1ccc2c(c1)N(c1ncc(-c3ccccn3)cn1)CC21CC1 [Compound 306, N,N-Dimethyl-1-(5-pyridin-2-yl-pyrimidin-2-yl)-spiro[1,2-dihydro-indole-3,1′-cyclopropane]-6-carboxylic acid amide]"
23,< 0.1,"CN(CCO)C(=O)c1ccc2c(c1)N(c1ncc(-c3cc([S+](C)[O-])ccn3)cn1)CC21CC1 (stereo not shown) [Compound 288, N-(2-Hydroxy-ethyl)-N-methyl-1-[5-[4-(methylsulfinyl)-pyridin-2-yl]-pyrimidin-2-yl]-spiro[1,2-dihydro-indole-3,1′-cyclopropane]-6-carboxylic acid amide]"
24,< 0.1,"O=C(c1ccc2c(c1)N(c1ncc(-c3cccnn3)cn1)CC21CC1)N1CC2CC1CN2 (stereo not shown) [Compound 274, (2,5-Diazabicyclo[2.2.1]heptan-2-yl)-[1-(5-pyridazin-3-yl-pyrimidin-2-yl)-spiro[1,2-dihydro-indole-3,1′-cyclopropane]-6-yl]-methanone hydrochloride]"
25,< 0.1,"Nc1ccnc(-c2cnc(N3CC4(CC4)c4ccc(C(=O)N5C[C@H]6C[C@@H]5CN6)cc43)nc2)c1 [Compound 356, [1-[5-(4-Amino-pyridin-2-yl)-pyrimidin-2-yl]-spiro[1,2-dihydro-indole-3,1′-cylcopropane]-6-yl]-[(1R,4R)-2,5-diazabicyclo[2.2.1]heptan-2-yl]-methanone]"
26,< 0.1,"CN(CCO)C(=O)c1ccc2c(c1)N(c1ncc(-c3cc(C(N)=O)cs3)cn1)CC21CC1 [Compound 348, 1-[5-(4-Carbamoyl-thiophen-2-yl)-pyrimidin-2-yl]-N-(2-hydroxy-ethyl)-N-methyl-spiro[1,2-dihydro-indole-3,1′-cyclopropane]-6-carboxylic acid amide]"
27,< 0.1,"CC(O)c1ccnc(-c2cnc(N3CC4(CC4)c4ccc(C(=O)N(C)CCO)cc43)nc2)c1 (stereo not shown) [Compound 318, N-(2-Hydroxy-ethyl)-1-[5-[4-(1-hydroxy-ethyl)-pyridin-2-yl]-pyrimidin-2-yl]-N-methyl-spiro[1,2-dihydro-indole-3,1′-cyclopropane]-6-carboxylic acid amide]"

row,SMILES,IC50 [µM]
1,"CN(CCO)C(=O)c1ccc2c(c1)N(c1ncc(-c3nc(CCO)cs3)cn1)CC21CC1 [Compound 339, N-(2-Hydroxy-ethyl)-1-[5-[4-(2-hydroxy-ethyl)-thiaozl-2-yl]-pyrimidin-2-yl]-N-methyl-spiro[1,2-dihydro-indole-3,1′-cyclopropane]-6-carboxylic acid amide]",< 0.1
